Experiments:
Format in all cases: in vivo
souris [1] = assay: Traction test; settings: 0,5 h after administration, dose not stated
Procedure: (§1) On a résumé ci-après les résultats des essais pharmacologiques qui ont été entrepris avec les produits selon la présente addition. Dans ces essais, les produits de formule I à étudier ont été administrés par voie intrapéritonéale, en suspension dans une solution aqueuse de gomme arabique, sous un volume de 20 ml/kg chez la souris mâle et sous un volume de 5 ml/kg chez le rat mâle.
(§2) Les essais sont effectués sur des lots de 10 souris (par dose) 0,5 h après l'administration du CRL 40933.

souris [2] = assay: Interaction with oxotremorine
Procedure: as §1
Le CRL 40933 est administré à des lots de 6 souris 0,5 h avant l'injection intrapéritonéale de 0,5 mg/kg d'oxotrémorine.

souris [3] = assay: Four plates test
Procedure: as §1, §2

souris [4] = assay: Spontaneous motility (actimeter)
Procedure: as §1
Une demi-heure, après avoir reçu le CRL 40933, les souris (6 par dose, 12 témoins) sont placées en actimètre où leur motilité est enregistrée pendant 30 min.

souris [5] = assay: Interaction with reserpine
Procedure: as §1
Quatre heures après l'injection intrapéritonéale de 2,5 mg/kg de réserpine, des lots de 6 souris reçoivent le CRL 40933.

souris [6] = assay: Motility reduced by hypoxic aggression (acute hypobaric anoxia)
Procedure: as §1
Une demi-heure après avoir reçu le CRL 40933, les souris (10 par dose, 20 témoins) sont soumises à une anoxie hypobare aiguë [dépression de 600 mm Hg (soit environ 8 x 10^4 pascals) en 90 s, puis détente de 45 s], puis elles sont placées en actimètre où leur motilité est enregistrée pendant 10 min.

souris mâle [7] = assay: Pentobarbital-induced sleep duration
Excerpt: Les composés selon l'invention se distinguent du benzhydrylsulfinylacétamide (CRL 40476) précité par une différence d'action vis-à-vis du sommeil barbiturique. […]. Cette différence d'action qui est intéressante sur le plan thérapeutique est illustrée par le tableau IV

souris [8] = assay: Behavioural despair (forced immersion); settings: souris
Procedure: as §1
Une demi-heure après avoir reçu le CRL 40933, des lots de 10 souris par dose sont placés dans un espace restreint rempli d'eau sur une hauteur de 6 cm; on note la durée d'immobilité entre la 2e et la 6e minute suivant l'immersion.

SNC = assay: Essential activity on the CNS (Tableau I and conclusions of the neuropsychopharmacological study); settings: in vivo
Excerpt: Dans le tableau I ci-après, on a consigné un certain nombre de composés selon la formule I de façon nullement limitative, en mentionnant l'activité essentielle sur le SNC.
Les composés de formule I agissent tous sur le SNC. Les produits des exemples 1-3 et 7-8 sont des agents stimulants, en revanche les produits des exemples 4-6 sont des agents sédatifs.

souris mâle [9] = assay: Toxicity, DL-0; settings: i.p.
Procedure: as §1
La toxicité a été étudiée chez la souris mâle. Les résultats relatifs à la DL-0 (dose minimale non mortelle) sont donnés dans le tableau II ci-après.

souris [10] = assay: Interaction with barbital (sleep)
Procedure: as §1
Une demi-heure après l'administration de CRL 40933, des lots de 10 souris reçoivent une injection intrapéritonéale de 220 mg/kg de barbital.

rats = assay: Interaction with amphetamine (stereotypies); settings: rat; 8 mg/kg à 128 mg/kg i.p.
Procedure: as §1
L'amphétamine (2 mg/kg)est injectée par voie intrapéritonéale à des lots de 6 rats, 30 min après l'administration de CRL 40933.

souris [11] = assay: Motility reduced by habituation to the enclosure
Procedure: as §1
Après 18 h de séjour dans les actimètres, les souris (6 par dose, 12 témoins) reçoivent le CRL 40933. Elles sont aussitôt replacées dans leurs enceintes respectives et, 30 min plus tard, on enregistre leur motilité pendant 30 min.

homme = assay: Clinical trials; settings: for résultats en tant que médicaments de l'éveil: notamment vieillard, gélules ou comprimés de 100 à 200 mg, 1 à 3 par jour
Excerpt: Les études cliniques ont porté sur les troubles de la vigilance, de l'éveil et des états confusionnels, d'une part, et sur les troubles de l'affectivité, du contact et des dépressions, d'autre part.

rat = assay: Interaction with apomorphine, rat; settings: apomorphine 0,5 mg/kg s.c., dose not stated
Procedure: as §1
Le CRL 40933 est administré à des lots de 6 rats 0,5 h avant l'injection sous-cutanée de 0,5 mg/kg d'apomorphine.

souris [12] = assay: Interaction with apomorphine, mouse
Procedure: as §1
Des lots de 6 souris par dose reçoivent le CRL 40933 0,5 h avant l'injection sous-cutanée d'apomorphine administrée à la dose de 1 ou 16 mg/kg.

souris mâles = assay: Global behaviour and reactivities, mouse; settings: souris
Procedure: as §1
(§3) Pour apprécier le comportement global et les réactivités, des lots de six animaux (souris mâles ou rats mâles) ont été observés avant administration de chaque produit, puis 15 min, 30 min, 1 h, 2 h, 3 h et 24 h après administration de chaque produit. Les résultats sont consignés dans le tableau III ci-après, […]

souris [13] = assay: Asphyxic anoxia (gallamine triethiodide); settings: 64 mg/kg et 256 mg/kg i.p.
Procedure: as §1
Des lots de 10 souris par dose reçoivent le CRL 40933 30 min avant l'administration intrapéritonéale de 32 mg/kg de triiodoéthylate de gallamine.

souris [14] = assay: Electroshock
Procedure: as §1, §2

souris [15] = assay: Intergroup aggressiveness; settings: dose not stated
Procedure: as §1
Après avoir séjourné pendant 3 semaines dans chacune des moitiés d'une cage séparées par une cloison opaque, des groupes de 3 souris reçoivent le CRL 40933. 30 min plus tard, les deux groupes d'une même cage sont réunis par retrait de la cloison et on note le nombre de combats qui surviennent en 10 min.

rats mâles = assay: Global behaviour and reactivities, rat
Procedure: as §1, §3

[16] = dose 256 mg/kg i.p., 0,5 h before pentobarbital
[17] = 16 mg/kg, 64 mg/kg et 256 mg/kg i.p.

## CC(C)NC(=O)C[S+]([O-])C(c1ccccc1)c1ccccc1 (stereo not shown) [Exemple 2]
Souris [1]
  déficit moteur (traction): ne provoque pas de déficit moteur majeur
Souris [2]; 64 mg/kg à 256 mg/kg i.p.
  signes de stimulation cholinergique périphérique, notamment la défécation: semble entraîner une diminution
Souris [2]; 256 mg/kg i.p.
  intensité des tremblements provoqués par l'oxotrémorine: semble diminuer modérément
Souris [2]; dose not stated
  action hypothermisante de l'oxotrémorine: ne modifie pratiquement pas
Souris [3]; 0,5 h after administration, dose not stated
  nombre de passages punis: n'entraîne pas d'augmentation
Souris [4]; 256 mg/kg i.p.
  motilité spontanée: hypermotilité nette
Souris [5]; 256 mg/kg i.p.
  ptôsis réserpinique: diminue très modérément
Souris [6]; 64 mg/kg et surtout 256 mg/kg i.p.
  récupération motrice (motilité réduite par agression hypoxique): amélioration nette
Souris mâle [7]; [16]
  Action sur la durée du sommeil induit par le pentobarbital (50 mg/kg i.p.) effet: (a)
Souris [8]; dès la dose de 16 mg/kg i.p.
  durée d'immobilité: diminue nettement
SNC
  Activité sur le SNC: stimulant
  conclusion of the neuropsychopharmacological study: main type of CNS effect: agent psychotrope
Souris mâle [9]
  DL-O: supérieure à 512 mg/kg
Souris [10]; 256 mg/kg i.p.
  durée du sommeil barbiturique: diminue nettement
rats
  stéréotypies amphétaminiques: semble potentialiser faiblement
Souris [11]; 4 mg/kg, 64 mg/kg et 256 mg/kg i.p.
  activité chez la souris habituée à son enceinte: semble provoquer une reprise de l'activité
Souris [11]; intermediate dose 16 mg/kg i.p.
  reprise de l'activité chez la souris habituée à son enceinte: n'est pas observé
homme
  action contre l'énurésie: agissent efficacement
  résultats en tant que médicaments de l'éveil: excellents résultats
rat
  stéréotypies induites par l'apomorphine: ne sont pas modifiées
Souris [12]; dose not stated
  comportement de verticalisation et stéréotypies (apomorphine): laisse inchangés
  hypothermie produite par l'apomorphine: laisse inchangés
Souris mâles; 256 mg/kg i.p., pendant 0,5 h
  hypothermie modérée: -1 °C
Souris mâles; 512 mg/kg i.p.
  Observations (comportement global et réactivités): respiration déprimée, dyspnée, sédation, diminution de la réactivité au toucher, puis excitation au bout de 3 h
  mortalité: pas de mortalité
Souris mâles; 128 mg/kg i.p.
  Observations (comportement global et réactivités): sédation, puis excitation 3 h après admi-nistration
Souris mâles; 256 mg/kg i.p.
  Observations (comportement global et réactivités): sédation pendant 0,5 h avec diminution de la fréquence respiratoire - hyporéactivité au toucher pendant 2 h - hypothermie modérée (-1°C) pendant 0,5 h - excitation 3 h après administration
Souris [13]
  apparition des convulsions anoxiques provoquées par le triiodoéthylate de gallamine: retarde modérément
Souris [14]; 64 mg/kg à 256 mg/kg i.p.
  effets convulsivants de l'électrochoc: s'oppose
Souris [15]
  agressivité intergroupes (nombre de combats): diminue très modérément
Rats mâles; 128 mg/kg i.p.
  Observations (comportement global et réactivités): mydriase pendant 3 h

## CC(C)(C)NC(=O)C[S+]([O-])C(c1ccccc1)c1ccccc1 (stereo not shown) [Exemple 3]
SNC
  Activité sur le SNC: stimulant

## CCNC(=O)C[S+]([O-])C(c1ccccc1)c1ccccc1 (stereo not shown) [Exemple 4]
Souris [4]; doses faibles et moyennes
  activité motrice: absence de toute diminution d'activité motrice
Souris [4]; doses élevées
  motilité spontanée: hypermotilité discrète
Souris [6]; doses élevées
  récupération motrice après hypoxie: amélioration sensible
Souris mâle [7]; dose 64 mg/kg i.p., 0,5 h before pentobarbital
  Action sur la durée du sommeil induit par le pentobarbital (50 mg/kg i.p.) effet: (a)
Souris mâle [7]; dose 128 mg/kg i.p., 0,5 h before pentobarbital
  Action sur la durée du sommeil induit par le pentobarbital (50 mg/kg i.p.) effet: (a)
Souris mâle [7]; [16]
  Action sur la durée du sommeil induit par le pentobarbital (50 mg/kg i.p.) effet: (a)
Souris [8]; dose not stated
  hypomotilité de "désespoir": diminution
SNC
  Activité sur le SNC: sédatif
Souris mâle [9]
  DL-O: supérieure à 512 mg/kg
Souris [10]; dose not stated
  sommeil barbiturique: effet antagoniste
Souris [11]; doses élevées
  activité chez la souris habituée à son enceinte: reprise modérée de l'activité
Souris mâles; doses faibles et moyennes
  ensemble d'effets de type sédatif: sédation, hypo- réactivité, hypoagressivité, hypothermie
Souris [14]; doses faibles et moyennes
  effet convulsivant de l'électrochoc: antagonisme

## O=C(C[S+]([O-])C(c1ccccc1)c1ccccc1)N1CCOCC1 (stereo not shown) [Exemple 6]
SNC
  Activité sur le SNC: sédatif

## NC(=O)C[S+]([O-])C(c1ccccc1)c1ccc(F)cc1 (stereo not shown) [Exemple 9]
Souris [1]
  déficit moteur (traction): ne provoque pas de déficit moteur
Souris [2]; dose not stated
  signes de stimulation cholinergique périphérique dus à l'oxotrémorine: ne modifie pas
  tremblements induits par l'oxotrémorine: n'est pratiquement pas modifiée
Souris [2]; highest dose used
  baisse de température provoquée par l'oxotrémorine: s'oppose
Souris [3]; 64 et 256 mg/kg i.p.
  passages punis: nette augmentation
Souris [4]
  durée de l'hypermotilité: ≥ 4 h
  time of maximal hypermotility after administration: 0,5 h
Souris [4]; dès la dose de 16 mg/kg i.p.
  motilité spontanée: pypermotilité
Souris [5]; 256 mg/kg i.p., 1,5 h
  hypothermie réserpinique: s'oppose tardivement
Souris [5]; 256 mg/kg i.p., 24 h
  ptosis réserpinique: s'oppose tardivement
Souris mâle [7]; dose 16 mg/kg i.p., 0,5 h before pentobarbital
  Action sur la durée du sommeil induit par le pentobarbital (50 mg/kg i.p.) effet: (a)
Souris [8]; [17]
  durée d'immobilité: diminue fortement
SNC
  Activité sur le SNC: stimulant
  conclusion of the neuropsychopharmacological study: main type of CNS effect: effet stimulant du SNC qui est essentiel
  conclusion: effets de type antidépresseur: à forte dose seulement un effet antidépresseur du SNC
Souris mâle [9]
  DL-O: supérieure à 512 mg/kg
Souris [10]; [17]
  durée du sommeil barbiturique: diminue nettement
Souris [11]; 64 mg/kg et 256 mg/kg i.p.
  activité motrice chez la souris habituée à son enceinte: reprise de l'activité motrice
homme
  action contre l'énurésie: agissent efficacement
  résultats en tant que médicaments de l'éveil: excellents résultats
Souris [12]; 256 mg/kg i.p.
  action hypothermisante de l'apomorphine: s'oppose
  comportement de verticalisation et stéréotypies (apomorphine): sans modifier
Souris mâles; 16 mg/kg i.p.
  Observations (comportement global et réactivités): excitation pendant 1 h pour 33 % des animaux
Souris mâles; 16 mg/kg i.p., pendant 1 h
  excitation: 33 % des animaux
Souris mâles; 64 mg/kg i.p.
  Observations (comportement global et réactivités): excitation apparaissant en 30 minutes, maximale après 2 h et durant 24 h - apparition tardive (2-3 h)- 4 mouvements stéréotypés de faible intensité - réactivité au toucher pendant 2-3 h
Souris mâles; 256 mg/kg i.p.
  Observations (comportement global et réactivités): excitation apparaissant en 30 minutes et maximale 2 à 3 h après administration - présence de stétréotypies nettes mais tardives - réactivité au toucher pendant 3 h
Souris [14]; 256 mg/kg i.p.
  effets convulsivants de l'électrochoc: s'oppose partiellement
Rats mâles; 8 mg/kg i.p.
  Observations (comportement global et réactivités): hyporéactivité fugace (0,5 h) et diminution du tonus musculaire
Rats mâles; 32 mg/kg i.p.
  Observations (comportement global et réactivités): diminution fugace (0,5 h) de la réactivité au toucher et du tonus musculaire
Rats mâles; 128 mg/kg i.p.
  Observations (comportement global et réactivités): excitation pendant 2 h avec hyper-réactivité au toucher pendant 0,5 h
